The structures appear in SMILES notation.

Among the data in BindingDB's records for patent US12338253 (Applied Pharmaceutical Science, 2025) are IC50 values, retold here.

The assay has as its target Proto-oncogene tyrosine-protein kinase receptor Ret [V804M] (Human, UniProt P07949, V804M). Nature of the assay: Kinase Activity Assay.

Chain of Proto-oncogene tyrosine-protein kinase receptor Ret [V804M] (P07949 29-1114 V804M limits assumed): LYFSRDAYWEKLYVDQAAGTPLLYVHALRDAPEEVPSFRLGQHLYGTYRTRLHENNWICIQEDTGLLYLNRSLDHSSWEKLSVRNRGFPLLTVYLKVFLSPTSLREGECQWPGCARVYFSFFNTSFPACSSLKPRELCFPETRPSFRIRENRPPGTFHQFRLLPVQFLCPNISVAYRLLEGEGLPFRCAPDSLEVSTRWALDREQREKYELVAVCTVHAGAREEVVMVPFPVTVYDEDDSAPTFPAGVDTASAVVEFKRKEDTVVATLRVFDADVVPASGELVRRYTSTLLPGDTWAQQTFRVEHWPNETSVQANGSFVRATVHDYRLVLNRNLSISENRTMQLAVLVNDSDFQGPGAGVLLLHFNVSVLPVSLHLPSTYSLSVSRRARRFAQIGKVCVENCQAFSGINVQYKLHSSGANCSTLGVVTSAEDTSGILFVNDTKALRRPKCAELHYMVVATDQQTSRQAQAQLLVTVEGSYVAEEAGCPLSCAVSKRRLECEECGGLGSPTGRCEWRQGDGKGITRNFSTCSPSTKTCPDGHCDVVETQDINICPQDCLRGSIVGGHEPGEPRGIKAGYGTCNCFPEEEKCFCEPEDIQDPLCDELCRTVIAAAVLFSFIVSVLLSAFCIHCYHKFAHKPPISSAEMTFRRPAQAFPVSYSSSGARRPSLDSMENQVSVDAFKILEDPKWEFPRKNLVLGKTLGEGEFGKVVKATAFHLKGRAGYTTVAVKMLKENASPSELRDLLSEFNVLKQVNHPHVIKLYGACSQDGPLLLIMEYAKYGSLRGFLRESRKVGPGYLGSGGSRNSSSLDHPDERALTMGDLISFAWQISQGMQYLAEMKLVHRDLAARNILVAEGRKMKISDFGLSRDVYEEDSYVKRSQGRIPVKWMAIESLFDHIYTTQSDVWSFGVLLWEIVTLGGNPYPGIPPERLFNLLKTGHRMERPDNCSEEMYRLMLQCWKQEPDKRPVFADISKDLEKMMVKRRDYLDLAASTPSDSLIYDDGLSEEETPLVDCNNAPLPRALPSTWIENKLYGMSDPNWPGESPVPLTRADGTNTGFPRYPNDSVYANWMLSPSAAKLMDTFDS

One may read the IC50 as the concentration that inhibits the measured activity by half. For the compound `COc1ccc(CN2C3CC2CN(c2ccc(-c4cc(OC[C@@H]5CNCCO5)cn5nc6[nH]ncc6c45)cn2)C3)cn1` [US12338253, Compound 17], the IC50 is 0.1 nM.
